According to patent publication US8466134B1, “Aqueous compositions containing corticosteroids for nasal and pulmonary delivery” (Athena Neurosciences, Inc., priority 1998, dated 2013):

Assay: Storage stability of budesonide formulations, % recovery (Examples 6 and 8)
Type: physicochemical
Conditions: pH between about 3 and about 8, more preferably about 3.5 to about 6
Procedure: After dilution all samples were sterilized by filtering them through a 0.2 μm Millipore sterile filters and placed in sterile low density polyethylene plastic vials. These formulations were kept in humidity and temperature controlled chambers at 5° C. 25° C./60% RH and 40° C./75% RH (where RH is the relative humidity). The % recovery after 13.5 weeks from time zero is presented for each formulation and storage condition, in the following table: […]
The formulations described in Examples 6 and 7 were also prepared using lower buffer concentrations of 10 mM, 5 mM, and 1 mM with similar stability results.

Compound: CCCC1O[C@@H]2C[C@H]3[C@@H]4CCC5=CC(=O)C=C[C@]5(C)[C@H]4[C@@H](O)C[C@]3(C)[C@]2(C(=O)CO)O1 (stereo partly shown) [Budesonide, budesonide]
- stability of aqueous compositions at lower pH ranges: superior stability
